SMILES strings stand for the structures.

GDP-bound KRAS protein (aa 1-169), containing both G12C and C118A amino acid substitutions, sequence (P01116 1-169 isoform P01116-2 G12C/C118A): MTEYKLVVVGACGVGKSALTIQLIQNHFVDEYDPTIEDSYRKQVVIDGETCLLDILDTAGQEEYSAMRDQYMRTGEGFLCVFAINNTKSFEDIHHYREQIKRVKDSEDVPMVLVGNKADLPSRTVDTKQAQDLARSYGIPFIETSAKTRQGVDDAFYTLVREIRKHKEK

For the first assay, the system named is Phosphorylation of ERK1/2 in MIA PaCa-2 cells. Kind of assay: Phospho-ERK1/2 MSD Assay, MIA PaCa-2 (Table 16 conditions: 2 hours compound treatment). The assay is classed as cell-based. As to conditions: MIA PaCa-2 cells, 10 ng/mL EGF for 10 min, read-out: p-ERK IC50 (MIA PaCa-2). How it is done: (§1) For compounds in Table 16, the following assay conditions were employed:
Sixteen hours prior to compound treatment, MIA PaCa-2 or A549 cells were seeded in 96-well cell culture plates at a density of 25,000 cells/well and incubated at 37° C., 5% CO2. A compound dose-response titration was diluted in growth media, added to appropriate wells of a cell culture plate, and then incubated at 37° C., 5% CO2 for 2 hours. […] Phosphorylation of ERK1/2 in compound-treated lysates was assayed using Phospho-ERK1/2 Whole Cell Lysate kits (Meso Scale Discovery K151DWD) according to the manufacturer's protocol. Assay plates were read on a Meso Scale Discovery Sector Imager 6000, and data were analyzed using a 4-parameter logistic model to calculate IC50 values.
A word on the IC50: it is the concentration that inhibits the measured activity by half. Consider `C=CC(=O)N1CCN(c2nc(=O)n(-c3c(C)ccnc3C(C)C)c3nc(-c4c(O)cccc4F)c(F)cc23)[C@@H](C)C1` [Example 41-2, 6-fluoro-7-(2-fluoro-6-hydroxyphenyl)-1-(4-methyl-2-(2-propanyl)-3-pyridinyl)-4-((2S)-2-methyl-4-(2-propenoyl)-1-piperazinyl)pyrido-[2,3-d]pyrimidin-2(1H)-one], for which the IC50 was 1660 nM.

Turning to `C=CC(=O)N1CCN(c2nc(=O)n(-c3c(C)ccnc3C(C)C)c3nc(-c4c(O)cccc4F)c(F)cc23)[C@@H](C)C1` [Example 41-1, 6-fluoro-7-(2-fluoro-6-hydroxyphenyl)-1-(4-methyl-2-(2-propanyl)-3-pyridinyl)-4-((2S)-2-methyl-4-(2-propenoyl)-1-piperazinyl)pyrido-[2,3-d]pyrimidin-2(1H)-one], the IC50 turned out to be 72 nM.

Consider `C=CC(=O)N1CCN(c2nc(=O)n(-c3c(C)ccnc3C(C)C)c3nc(-c4c(O)cccc4F)c(F)cc23)[C@@H](C)C1` [Example 41, 6-Fluoro-7-(2-fluoro-6-hydroxyphenyl)-1-(4-methyl-2-(2-propanyl)-3-pyridinyl)-4-((2S)-2-methyl-4-(2-propenoyl)-1-piperazinyl)pyrido[2,3-d]pyrimidin-2(1H)-one], for which the IC50 was 85 nM.

Another assay addresses GDP-bound KRAS protein (aa 1-169), containing both G12C and C118A amino acid substitutions (Homo sapiens, UniProt P01116, C118A/G12C). Kind of assay: Coupled Nucleotide Exchange Assay (Table 16 conditions: 5 min pre-incubation). The settings on record: 5 min compound pre-incubation; SOS-mediated nucleotide exchange, AlphaScreen. The format is biochemical. How it is done: as §1
The assay plates were then read on a PerkinElmer EnVision Multilabel Reader, using AlphaScreen® technology, and data were analyzed using a 4-parameter logistic model to calculate IC50 values.
For orientation: In Alpha technology, singlet oxygen from a donor bead excites a nearby acceptor bead.
`C=CC(=O)N1CCN(c2nc(=O)n(-c3ccccc3C(C)C)c3nc(-c4ccccc4F)c(Cl)nc23)[C@@H](C)C1` (single isomer, unassigned) [Example 50-1] yielded an IC50 of 117 nM.

In turn, `C=CC(=O)N1CCN(c2nc(=O)n(-c3ccccc3C(C)C)c3nc(-c4c(O)cccc4F)c(C)cc23)[C@@H](C)C1` (single isomer, unassigned) [Example 52-2] gave an IC50 of 146 nM.

With `C=CC(=O)N1CCN(c2nc(=O)n(-c3ccccc3C(C)C)c3nc(-c4ccccc4F)c(C)nc23)[C@@H](C)C1` (single isomer, unassigned) [Example 51-1], the IC50 was 11200 nM.

`C=CC(=O)N1CCN(c2nc(=O)n(-c3ccccc3C(C)C)c3nc(-c4c(O)cccc4F)c(C)cc23)[C@@H](C)C1` [Example 52, 7-(2-fluoro-6-hydroxyphenyl)-6-methyl-4-((2S)-2-methyl-4-(2-propenoyl)-1-piperazinyl)-1-(2-(2-propanyl)phenyl)pyrido[2,3-d]pyrimidin-2(1H)-one] returned an IC50 of 338 nM.

Molecule `C=CC(=O)N1CCN(c2nc(=O)n(-c3ccccc3C(C)(C)C)c3nc(-c4c(O)cccc4F)c(Cl)cc23)[C@@H](C)C1` (single isomer, unassigned) [Example 49-1] showed an IC50 of 2580 nM.

For `C=CC(=O)N1CCN(c2nc(=O)n(-c3ccccc3C(C)C)c3nc(-c4c(O)cccc4F)c(C)cc23)[C@@H](C)C1` (single isomer, unassigned) [Example 52-1], the IC50 came out at 5990 nM.

Consider `C=CC(=O)N1CCN(c2nc(=O)n(-c3ccccc3C(C)C)c3nc(-c4ccccc4F)c(C)nc23)[C@@H](C)C1` (single isomer, unassigned) [Example 51-2], for which the IC50 came out at 221 nM.

In the case of `C=CC(=O)N1CCN(c2nc(=O)n(-c3ccccc3C(C)C)c3nc(-c4ccccc4F)c(Cl)nc23)[C@@H](C)C1` (single isomer, unassigned) [Example 50-2], the IC50 was determined as 3690 nM.

Molecule `C=CC(=O)N1CCN(c2nc(=O)n(-c3c(C)ccnc3C3CC3)c3nc(-c4c(O)cccc4F)c(F)cc23)[C@@H](C)C1` [Example 42-2, 1-(2-cyclopropyl-4-methyl-3-pyridinyl)-6-fluoro-7-(2-fluoro-6-hydroxyphenyl)-4-((2S)-2-methyl-4-(2-propenoyl)-1-piperazinyl)pyrido-[2,3-d]pyrimidin-2(1H)-one] returned an IC50 of 1560 nM.

The molecule `C=CC(=O)N1CCN(c2nc(=O)n(-c3ccccc3C(C)C)c3nc(-c4ccccc4F)c(Cl)nc23)[C@@H](C)C1` [Example 50, 6-Chloro-7-(2-fluorophenyl)-4-((2S)-2-methyl-4-(2-propenoyl)-1-piperazinyl)-1-(2-(2-propanyl)phenyl)-2(1H)-pteridinone] came in with an IC50 of 276 nM.
